According to patent publication US10213415B2, “Compounds as opioid receptor modulators” (JANSSEN PHARMACEUTICA NV, priority 2004, dated 2019):
Where “and” joins values, the source holds several entries; their conditions need not be identical. Equal values may be shown once. Read-outs that look alike come from different tables or passages of the source.

Legend:
[1] = molecular target: T1, human delta subtype 2 opioid receptor (Homo sapiens, UniProt P41143); assay: Human Delta Opioid Receptor Binding Assay (CHO membranes, 3H-Naltrindole); conditions: read-out: hKi δ
T1 construct: purchased Perkin Elmer RBHODM400UA; host or cells: Chinese Hamster Ovary cells (recombinant expression)
T1 sequence (P41143 whole entry): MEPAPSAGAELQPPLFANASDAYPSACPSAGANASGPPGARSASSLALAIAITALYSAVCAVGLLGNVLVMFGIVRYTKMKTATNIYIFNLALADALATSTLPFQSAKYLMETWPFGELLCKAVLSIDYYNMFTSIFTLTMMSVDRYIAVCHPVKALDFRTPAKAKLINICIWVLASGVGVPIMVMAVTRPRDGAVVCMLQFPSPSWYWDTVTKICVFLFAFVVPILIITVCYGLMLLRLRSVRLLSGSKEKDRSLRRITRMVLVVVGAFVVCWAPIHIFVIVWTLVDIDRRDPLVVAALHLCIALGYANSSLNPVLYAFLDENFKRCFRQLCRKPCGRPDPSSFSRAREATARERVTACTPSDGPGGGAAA
Method in brief: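 Filtration binding on CHO-cell membranes expressing the human receptor, in 50 mM Tris pH 7.5 with 5 mM MgCl2, 30 min at room temperature; 3H-naltrindole diluted to 6 nM before mixing 1:1 with compound. Nonspecific binding defined with 1 μM unlabelled naltrindole; inhibition relative to no-inhibitor wells.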

[2] = molecular target: T2, delta opioid receptor (NG108-15 cell membranes) (Mus musculus, UniProt P32300); assay: Delta Opioid Receptor Functional Assay: [35S]GTPγS Binding in NG108-15 Cell Membranes, Version 2; assay type: biochemical; conditions: for DOR GTP-binding Assay v2 (% I): % inhibition of agonist-stimulated GTPγS binding
T2 construct: NG108-15 cell membranes were purchased from Applied Cell Sciences (Rockville, Md.); host or cells: NG108-15 cells (membranes purchased)
T2 sequence (P32300 whole entry): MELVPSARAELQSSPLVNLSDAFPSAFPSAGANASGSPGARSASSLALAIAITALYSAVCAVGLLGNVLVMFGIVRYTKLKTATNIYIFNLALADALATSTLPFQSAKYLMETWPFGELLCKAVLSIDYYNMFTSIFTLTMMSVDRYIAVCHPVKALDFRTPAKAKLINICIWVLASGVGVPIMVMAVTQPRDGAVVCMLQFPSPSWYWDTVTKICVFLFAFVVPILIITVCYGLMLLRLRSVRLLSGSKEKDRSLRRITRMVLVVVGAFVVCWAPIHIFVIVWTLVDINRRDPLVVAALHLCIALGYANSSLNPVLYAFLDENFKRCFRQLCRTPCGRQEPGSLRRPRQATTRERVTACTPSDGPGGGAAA
Method in brief: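 SPA-coupled NG108-15 membranes (37.5 μg/ml) were incubated with 0.1 nM [35S]GTPγS and 100 μM GDP in Tris pH 7.6, 5 mM MgCl2, 100 mM NaCl, with increasing agonist concentrations; 10 μM unlabeled GTPγS defined nonspecific binding. EC50 from % of basal; inhibition as % of 1 μM SNC80 stimulation.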

male CD-1 mice [3] = assay: In Vivo Assay: Stress-Induced Entire GI Tract Transit (MEGIT, MEGIT-NES, MEGIT-RS); set-up: species or system mouse; conditions: for MEGIT-RS entire GI transit 5 hr (% RS): dose 20 p.o., restraint stress
Description: Methods: The animals used in these studies are male CD-1 mice, ave. wt. ˜30 g. Procedure: Mice were housed in LAM under 12 h/12 h light/dark cycle, food & water ad lib. On the day before the experiments, the mice assigned to the “acclimated” (non-stressed) control group were placed into individual wire mesh-bottomed cages, provided food and water ad lib. The acclimated control group was in this new environment for 16-18 hrs prior to beginning the test. On the day of the experiment, mice assigned to experimental groups were housed in home cages were transported to procedure room and remain in their home cages until the start of the transit portion of the study. […] After the carmine marker was administered each mouse was placed in the novel environment cage. One hour after administration of carmine, the fecal pellet output of each animal was recorded. At one-hour intervals thereafter the fecal pellets were examined for the presence of carmine-dye. The number of mice that excreted a carmine-containing fecal pellet at the end of each hour post carmine administration was recorded, until all mice had excreted carmine in a fecal pellet or the end of 6 hrs post carmine administration, whichever occurred first. A variant of this novel environment stress (NES) paradigm is to use the same procedures of dye and compound administrations, but to use restraint (confinement in a small plastic tube for 3 hr) as a stressor (RS=restraint stress), followed by two hours in an individual cage (total of 5 hr fecal transit time). […] The mouse entire GI tract (MEGIT) transit test can thus be done in mice that are all acclimated (non-stressed), in which case the data are expressed as % control (vehicle only), or in mice that are exposed to NES or RS, in which cases the data are expressed as % of the vehicle treated NES or RS group.

male CD-1 mice [4] = assay: In Vivo Assay: Upper GI Tract Transit (MUGIT); conditions: Mus musculus, po, 1 h, p.o., read-out: upper GI transit (% ctrl)
Description: Methods: The animals used in these studies were male CD-1 mice, ave. wt. ˜30 g. Mice were housed under 12 h/12 h light/dark cycle, food & water ad lib. On the day of the experiment mice were assigned to experimental groups, including one vehicle-only group (=control). At 30 min before administration of carmine dye, animals were dosed with vehicle or vehicle-plus-compound, mice were returned to their home cages after drug administration. After administration of carmine, the animals were either returned to their home cages (non-stressed) or individually placed in the same metal cages as used in the fecal output or entire GI tract transit to induce a novel environment stress. One hour after administration of carmine, mice were sacrificed by cervical dislocation, the abdomen opened midventrally, the small intestine from pylorus to cecum was removed, the mesentery divided in order to lay the intestine straight & flat—without stretching. The total length of intestine and the length of carmine-dyed intestine were measured in order to determine the percent of the upper GI tract over which transit had occurred as follows: {(Length of carmine-dyed intestine)/(Total length of intestine)}×100=% upper GI transit. The data expressed were group means±SD (or s.e.m.) and data expressed as % of control.

[5] = NG108-15 cell membranes, [35S]GTPγS, version 2, read-out: DOR GTP-binding Assay_v2_ EC50
[6] = NG108-15 cell membranes, version 2

Compound	Ki [1]	EC50 [2, 5] [nM]	DOR GTP-binding Assay v2 (% I) [2, 6] [%]	also measured
Cc1cc(O)cc(C)c1C[C@H](N)C(=O)N(C)[C@@H](C)c1nc(-c2ccccc2)c[nH]1 [Cpd 207]	132 nM	–	–	–
COc1ccc(CN(C(=O)[C@@H](N)Cc2ccc(C(N)=O)cc2)[C@@H](C)c2nc(-c3ccccc3)c[nH]2)cc1C(=O)O [Cpd 4]	–	46	66.12	MEGIT-RS entire GI transit 5 hr (% RS) (male CD-1 mice [3]): 100 % RS
COC(=O)c1cc(CN(C(=O)[C@@H](N)Cc2c(C)cc(C(N)=O)cc2C)[C@@H](C)c2nc(-c3ccccc3)c[nH]2)ccc1OC [Cpd 17]	–	1.3	68.64	response vs control in vivo at 30 mg (male CD-1 mice [4]): 37.3%
C[C@H](c1nc(-c2ccccc2)c[nH]1)N(C)C(=O)[C@@H](N)Cc1ccc(C(N)=O)cc1 [Cpd 203]	501 nM	–	–	–
Cc1cc(O)cc(C)c1C[C@H](N)C(=O)N(Cc1ccnc2ccccc12)[C@@H](C)c1nc(-c2ccccc2)c[nH]1 [Cpd 246]	–	0.3	47.01	–
Cc1cc(O)cc(C)c1C[C@H](N)C(=O)N(Cc1nc(-c2ccccc2)c(C)[nH]1)C(C)C [Cpd 166]	300 nM and 375 nM	–	–	–
Cc1cc(O)cc(C)c1C[C@H](N)C(=O)N(Cc1nc(-c2ccccc2)c[nH]1)C1CCCCC1 [Cpd 190]	285 nM	–	–	–
Cc1cc(C(N)=O)cc(C)c1C[C@H](N)C(=O)N(Cc1ccc(C(=O)O)o1)[C@@H](C)c1nc(-c2ccccc2)c[nH]1 [Cpd 256]	–	> 10000	89.19	response vs control in vivo at 30 mg (male CD-1 mice [4]): 89.7%
COc1ccc(CN(C(=O)[C@@H](N)Cc2c(C)cc(C(N)=O)cc2C)[C@@H](C)c2nc(-c3ccccc3)c[nH]2)cc1C(=O)O [Cpd 18]	–	–	100	EC50 [2]: > 10000 nM; MEGIT-NES Entire GI transit 6 hr (% NES) (male CD-1 mice [3]; dose 30 p.o., novel environment stress): 80 % NES; response vs control in vivo at 5 mg (male CD-1 mice [4]; dose 5 (mg)): 94.2%; response vs control in vivo at 10 mg (male CD-1 mice [4]; dose 10 (mg)): 99.6%; response vs control in vivo at 25 mg (male CD-1 mice [4]; dose 25 (mg)): 83%; response vs control in vivo at 30 mg (male CD-1 mice [4]): 37.5%; response vs control in vivo at 50 mg (male CD-1 mice [4]; dose 50 (mg)): 69.9%; response vs control in vivo at 100 mg (male CD-1 mice [4]; dose 100 (mg)): 41.2%
COc1ccc(CN(C(=O)[C@@H](N)Cc2ccc(O)cc2)[C@@H](C)c2nc(-c3ccccc3)c[nH]2)cc1C(=O)O [Cpd 261]	–	21	30.04	MEGIT-RS entire GI transit 5 hr (% RS) (male CD-1 mice [3]): 103.6 % RS; response vs control in vivo at 30 mg (male CD-1 mice [4]): 87.7%
Cc1cc(O)cc(C)c1C[C@H](N)C(=O)N(Cc1nc(-c2ccc(F)cc2)c(C)[nH]1)C(C)C [Cpd 163]	301 nM and 63 nM	–	–	–
COc1ccc(CN(C(=O)[C@@H](N)Cc2c(C)cc(O)cc2C)[C@@H](C)c2nc(-c3ccccc3)c[nH]2)cc1C(=O)O [Cpd 260]	–	> 10000	100.97	–
COc1ccc(CN(C(=O)[C@@H](N)Cc2c(C)cc(C(N)=O)cc2C)[C@@H](C)c2nc(-c3ccccc3)c[nH]2)cc1-c1nnn[nH]1 [Cpd 8]	–	> 10000	94.03	response vs control in vivo at 30 mg (male CD-1 mice [4]): 77.3%
Cc1cc(C(N)=O)cc(C)c1C[C@H](N)C(=O)N(Cc1ccccc1)[C@@H](C)c1nc(-c2ccccc2)c[nH]1 [Cpd 114]	49 nM	–	–	–
Cc1cc(O)cc(C)c1C[C@H](N)C(=O)N(Cc1nc(-c2ccccc2)c[nH]1)C(C)C [Cpd 194]	103 nM	–	–	–
CCN(C(=O)[C@@H](N)Cc1c(C)cc(O)cc1C)[C@H](C)c1nc(-c2ccccc2)c[nH]1 [Cpd 217]	506 nM	–	–	–
COC(=O)c1ccc(CN(C(=O)[C@@H](N)Cc2c(C)cc(C(N)=O)cc2C)[C@@H](C)c2nc(-c3ccccc3)c[nH]2)o1 [Cpd 257]	–	7.4	48.88	–
Cc1cc(O)cc(C)c1C[C@H](N)C(=O)N(C)[C@H](C)c1nc(-c2ccccc2)c[nH]1 [Cpd 206]	275 nM	–	–	–
CC(C)N(Cc1nc(-c2ccccc2)c[nH]1)C(=O)[C@@H](N)Cc1ccc(O)cc1 [Cpd 195]	> 10000 nM	–	–	–
Cc1cc(C(N)=O)cc(C)c1C[C@H](N)C(=O)N(Cc1ccc(C(=O)O)cc1)[C@@H](C)c1nc(-c2ccccc2)c[nH]1 [Cpd 50]	–	1.4	60.27	–
COC(=O)c1ccc(CN(C(=O)[C@@H](N)Cc2ccc(C(N)=O)cc2)[C@@H](C)c2nc(-c3ccccc3)c[nH]2)o1 [Cpd 303]	–	95	23.85	–
Cc1cc(C(N)=O)cc(C)c1C[C@H](N)C(=O)N(Cc1cccc(C(=O)O)c1)[C@@H](C)c1nc(-c2ccccc2)c[nH]1 [Cpd 227]	–	> 10000	66.56	MEGIT-RS entire GI transit 5 hr (% RS) (male CD-1 mice [3]): 100 % RS; response vs control in vivo at 30 mg (male CD-1 mice [4]): 93.9%
Cc1cc(O)cc(C)c1C[C@H](N)C(=O)N(Cc1cccc(C(=O)O)c1)[C@@H](C)c1nc(-c2ccccc2)c[nH]1 [Cpd 48]	–	> 10000	108.36	response vs control in vivo at 30 mg (male CD-1 mice [4]): 102%
Cc1cc(O)cc(C)c1C[C@H](N)C(=O)N(C)Cc1nc(-c2ccccc2)c[nH]1 [Cpd 199]	209 nM	–	–	–
Cc1cc(O)cc(C)c1C[C@H](N)C(=O)N(Cc1ccccc1)[C@@H](C)c1nc(-c2ccccc2)c[nH]1 [Cpd 218]	189 nM	–	–	–
Cc1cc(C(N)=O)cc(C)c1C[C@H](N)C(=O)N(Cc1cccc(-c2nnn[nH]2)c1)[C@@H](C)c1nc(-c2ccccc2)c[nH]1 [Cpd 242]	–	> 10000	91.45	MEGIT-RS entire GI transit 5 hr (% RS) (male CD-1 mice [3]): 100 % RS
COc1ccc(CN(Cc2nc(-c3ccccc3)c[nH]2)C(=O)[C@@H](N)Cc2ccc(C(N)=O)cc2)cc1C(=O)O [Cpd 5]	–	> 10000	47.12	–
Cc1ccccc1-c1nc(CN(C(=O)[C@@H](N)Cc2c(C)cc(O)cc2C)C(C)C)[nH]c1C [Cpd 165]	322 nM	–	–	–
COc1ccc(CN(C(=O)[C@@H](N)Cc2c(C)cc(C(N)=O)cc2C)[C@@H](C)c2nc(-c3ccc(I)cc3)c[nH]2)cc1C(=O)O [Cpd 289]	–	> 10000	86.27	MEGIT-RS entire GI transit 5 hr (% RS) (male CD-1 mice [3]): 14.1 % RS; response vs control in vivo at 30 mg (male CD-1 mice [4]): 76.4%
